# Test results: patent US9383374B2, “Methods to determine susceptibility to treatment with leukotriene modifiers” (NATIONAL JEWISH HEALTH, priority 2008, dated 2016)
# System: children with physician-diagnosed asthma
# Assay: Randomized placebo-controlled study of daily montelukast on LTE4-related albuterol usage in schoolchildren with asthma
# Assay type: in vivo, human
# Conditions: for Change in Albuterol Usage Per IQR Increase in LTE4, Relative difference (treatment vs baseline interval) / Change in Albuterol Usage Per IQR Increase in LTE4, Treatment Interval: montelukast group
# Excerpt: Twenty-eight children, aged 6 to 15, who had physician-diagnosed asthma were followed over a 5-month period (Nov. 15, 2005 to Apr. 15, 2006). Children were excluded from the study if they were already receiving montelukast. Many of the children are classified as urban poor. The children attended the same school.
# After an initial two and a half month period (baseline interval), children were randomized to receive daily montelukast (montelukast group) or placebo (placebo group) for the final two and a half months of the study (treatment interval). Study medication and placebo were administered in a single-blinded fashion by school nurses or study personnel on school days and by parents (who were blinded) on non-school-days. Children were otherwise followed by their regular physicians who were free to adjust medications as needed (these medication changes were recorded and controlled for in the statistical analysis).
# Each child was given a Doser (Meditrak, Hudson, M S) for use at school throughout the 5-month period. The Doser is an electronic counter that records the total number of (albuterol) activations in each 24-hour period. At study initiation, parents completed a questionnaire describing baseline demographic and asthma severity characteristics. School nurses recorded all other medication changes during the study.
# Sixteen urine samples were collected from each child on 8 consecutive schooldays during the baseline interval and 8 consecutive schooldays during the treatment interval. Urine was collected at approximately the same time each day (10:00 AM to 12:00 PM). Collection was staggered in groups of 10 children so that urine monitoring occurred daily throughout the 5 months of the study.
# Baseline model: A Poisson regression model employing generalized estimating equations (GEE) (Dobson A J. An introduction to generalized linear models, 2nd edition, Chapman & Hall/CRC 2001) was used to determine the strength of association between albuterol medication use (modeled as the outcome) and LTE4 levels, at various lag times (in days) between the variables. An indicator for Friday (=1 if response was on Friday, =0 otherwise) was included because children had regular exercise activities from Monday through Thursday, but not on Friday. […] The same day and up to a 4-day lag of LTE4 was tested for, in separate models.
# Experiment model: Daily albuterol use was modeled as a function of LTE4, group (montelukast and placebo), interval (baseline and treatment), and all interactions of these variables, using Poisson regression and employing GEE. Using the baseline model as a guide, 3-day moving averages of LTE4 (days 0-2 and 1-3 prior to current day) were used. Other covariates in the model included daily indicators for Friday, prednisone use, special exercise days during the treatment interval, and interval-level indictors of ICS and LABA use.
# Effect modifier models: These models were fit for the subjects randomized to montelukast only. The model had LTE4, interval, the effect modifier of interest, and all interactions of these variables. Otherwise, the model was similar to the ‘Experiment model’ described above. The effect modifiers tested included gender, ICS and LABA use, mean LTE4, mean FENO, height, mean cotinine, and mean LTE4 to FENO ratio.
# The interquartile range (IQR) for LTE4 was used to standardize slope estimates; this statistic was determined by first calculating the IQR for each subject, and then taking the median across subjects. For all models described above, a first order autoregressive working covariance structure was used to model repeated measures within subjects over time. SAS software, version 9.1 (PROC GENMOD) was used to fit the data to the models described above. […]
# [1] = Group 1 meds: No Meds or ICS, 1-3 day moving average
# [2] = Group 2 meds: ICS and LABA, 1-3 day moving average
# [3] = LTE4:FENO Ratio 1st quartile estimate
# [4] = LTE4:FENO Ratio 3rd quartile estimate
# [5] = mean FENO 1st quartile estimate
# [6] = mean FENO 3rd quartile estimate
# [7] = mean LTE4 1st quartile estimate
# [8] = mean LTE4 3rd quartile estimate
# [9] = mean urine Cotinine 1st quartile estimate
# [10] = mean urine Cotinine 3rd quartile estimate
smiles,measurement,setting,value
"CC(C)(O)c1ccccc1CC[C@@H](SCC1(CC(=O)O)CC1)c1cccc(/C=C/c2ccc3ccc(Cl)cc3n2)c1 [Montelukast, montelukast]","Change in Albuterol Usage per IQR of LTE4, Relative Diff.",Female (Group 2 gender),−26.7%
same,"Change in Albuterol Usage per IQR of LTE4, Treatment interval",Female (Group 2 gender),−11.5%
same,"Change in Albuterol Usage per IQR of LTE4, Relative Diff.",[1],−22.0%
same,"Change in Albuterol Usage per IQR of LTE4, Treatment interval",[1],−10.5%
same,"Change in Albuterol Usage per IQR of LTE4, Relative Diff.",[2],−6.6%
same,"Change in Albuterol Usage per IQR of LTE4, Treatment interval",[2],−1.0%
same,"Change in Albuterol Usage per IQR of LTE4, Relative Diff.",Height 1st quartile estimate,−16.4%
same,"Change in Albuterol Usage per IQR of LTE4, Treatment interval",Height 1st quartile estimate,−2.4%
same,"Change in Albuterol Usage per IQR of LTE4, Relative Diff.",Height 3rd quartile estimate,−16.4%
same,"Change in Albuterol Usage per IQR of LTE4, Treatment interval",Height 3rd quartile estimate,−0.3%
same,"Change in Albuterol Usage per IQR of LTE4, Relative Diff.",[3],1.8%
same,"Change in Albuterol Usage per IQR of LTE4, Treatment interval",[3],−0.8%
same,"Change in Albuterol Usage per IQR of LTE4, Relative Diff.",[4],−17.6%
same,"Change in Albuterol Usage per IQR of LTE4, Treatment interval",[4],−1.3%
same,"Change in Albuterol Usage per IQR of LTE4, Relative Diff.",Male (Group 1 gender),−7.9%
same,"Change in Albuterol Usage per IQR of LTE4, Treatment interval",Male (Group 1 gender),−0.5%
same,"Change in Albuterol Usage per IQR of LTE4, Relative Diff.",[5],−10.4%
same,"Change in Albuterol Usage per IQR of LTE4, Treatment interval",[5],−0.1%
same,"Change in Albuterol Usage per IQR of LTE4, Relative Diff.",[6],−0.6%
same,"Change in Albuterol Usage per IQR of LTE4, Treatment interval",[6],−6.4%
same,"Change in Albuterol Usage per IQR of LTE4, Relative Diff.",[7],−13.4%
same,"Change in Albuterol Usage per IQR of LTE4, Treatment interval",[7],−1.5%
same,"Change in Albuterol Usage per IQR of LTE4, Relative Diff.",[8],−10.9%
same,"Change in Albuterol Usage per IQR of LTE4, Treatment interval",[8],−4.8%
same,"Change in Albuterol Usage per IQR of LTE4, Relative Diff.",[9],−8.2%
same,"Change in Albuterol Usage per IQR of LTE4, Treatment interval",[9],−4.0%
same,"Change in Albuterol Usage per IQR of LTE4, Relative Diff.",[10],−6.6%
same,"Change in Albuterol Usage per IQR of LTE4, Treatment interval",[10],−3.6%
same,"Change in Albuterol Usage Per IQR Increase in LTE4, Relative difference (treatment vs baseline interval)",Lag 0-2,−10.8%
same,"Change in Albuterol Usage Per IQR Increase in LTE4, Treatment Interval",Lag 0-2 (Day 0-2 moving average of LTE4),−3.0%
same,"Change in Albuterol Usage Per IQR Increase in LTE4, Relative difference (treatment vs baseline interval)",Lag 1-3,−13.0%
same,"Change in Albuterol Usage Per IQR Increase in LTE4, Treatment Interval",Lag 1-3 (Day 1-3 moving average of LTE4),−3.2%
